Test results as given in ChEMBL document CHEMBL4000152, “Synthesis and Antimalarial Activity of Mallatojaponin C and Related Compounds” (J Nat Prod, 2016).

Experiments:
[1] = system: Plasmodium falciparum; test: Antiplasmodial activity against intraerythrocytic stage of Plasmodium falciparum Dd2 assessed as parasite growth inhibition after 72 hrs by SYBR Green I dye-based assay; type: functional; conditions: Dd2, 72 h
[2] = system: Plasmodium falciparum; test: Antiplasmodial activity against Plasmodium falciparum FcB1/Columbia infected in human erythrocytes assessed as parasite growth inhibition after 24 hrs by [3H]-hypoxanthine incorporation assay; type: functional, cell-based
[3] = Stability of the compound under freezing condition; type: physicochemical

Structure (SMILES)	IC50 [1]	IC50 [2]	Stability [3]
CC(=O)c1c(O)cc(O)c(CC=C(C)C)c1O	> 20 µM		
CC(=O)c1c(O)cc(O)c(C/C=C(\C)CCC=C(C)C)c1O	6.6 µM		
COc1cc(O)c(C(C)=O)c(O)c1Cc1c(OC)cc(O)c(C(C)=O)c1O	8.1 µM	17.6 µM	
COc1cc(O)c(C(C)=O)c(O)c1CC=C(C)C	1.7 µM	7.4 µM	
CC(=O)c1c(O)c(CC=C(C)C)c(O)c(C(c2ccc(F)cc2)c2c(O)cc(O)c(CC=C(C)C)c2O)c1O (centres undefined)	2 to 4 µM		Unstable
COc1cc(O)c(C(C)=O)c(O)c1C/C=C(/C)CC/C=C(/C)CCC=C(C)C	0.56 µM		
COc1c(C/C=C(\C)CCC=C(C)C)c(O)c(C(C)=O)c(O)c1Cc1c(O)c(C(C)=O)c(O)c(C/C=C(\C)CCC=C(C)C)c1OC	1.7 µM	6 µM	
COc1cc(O)c(C(C)=O)c(O)c1CCC(C)(C)O	> 20 µM		
CC(=O)c1c(O)cc(O)c(C/C=C(/C)CC/C=C(/C)CCC=C(C)C)c1O	3.6 µM		
COc1c(CCC(C)(C)O)c(O)c(C(C)=O)c(O)c1Cc1c(O)c(C(C)=O)c(O)c(CCC(C)(C)O)c1OC	> 10 µM		
COc1cc(O)c(C(C)=O)c(O)c1C/C=C(\C)CCC=C(C)C	0.57 µM	4.4 µM	
COc1cc(O)c(C(C)=O)c(O)c1	> 20 µM		
CC(=O)c1c(O)cc(O)cc1O [2,4,6-TRIHYDROXYACETOPHENONE]	> 20 µM		
COc1c(CC=C(C)C)c(O)c(C(C)=O)c(O)c1Cc1c(O)c(C(C)=O)c(O)c(CC=C(C)C)c1OC [MALLOTOJAPONIN C]		0.75 µM	
